Results as given in patent US20130108653A1, “BIVALENT MOLECULES FOR HIV ENTRY INHIBITION” (priority 2009, published 2013).

System: JRCSF (CCR5-tropic)
Assay: Luciferase assay / single round infection in TZM-bl cells, JRCSF
Format: cell-based, HIV
Details: TZM-bl luciferase indicator cells; FIG. 20
From the text: FIGS. 10-14. Inhibitory effect of the bivalent molecules of the present invention on HIV spreading. The experiment is based on the activation of the luciferase gene upon infection of TZM-bl cells. X-axis depict 3 different dilutions of a virus stock (HXB2 (CRCX4-trop, virus 89.6 (Dual-trop) or JRCSF (CCR5-trop)) with unknown titer (1×, 5× and 25×). Y-axis depicts the amount of luminescence. Lower luminescence corresponds to greater inhibitory effect of the bivalent molecules of the present invention. (See also Example 4 elsewhere herein).
JRCSF is incubated in the presence of mol 500 in a concentration of 0.2 micrograms/ml and 0.1 micrograms/ml. JRCSF incubated without mol 500 is shown as a control. […]
The experiment is based on the activation of the luciferase gene upon infection of TZM-bl cells with 3 different virus strains (HXB2 (CRCX4-tropic), virus 89.6 (Dual-tropic) or JRCSF (CCR5-tropic)). The more luminescence measured, the greater activation of the luciferase gene has occurred, and the more inefficient the inhibition of infection has been by the molecule of the present invention […]
90 μl of Luciferin (britelite plus Perkin Elmer cat no: 6016761) is added to each well in order to start the chemo-luminescence reaction.
150 μl of the liquid is removed from each well and the luminescence is measured in a FLUO star Omega (BMG LABYECH Gmbh). […]

Substance: enfuvirtide
- neutralization of JR-CSF, single round infection, in words: very minor effects
